Test results as given in US20210395794A1, “Antimicrobial Susceptibility Assay and Kit” (The University of Manchester, priority 2018, published 2021).

Columns and labels:
E. coli in UTI samples = assay: Flow cytometric antibiotic sensitivity of positive UTI urine samples (Firsway clinic) in Terrific Broth with diS-C3(5); type: cell-based; design: key: R—resistant; S—sensitive; conditions: antibiotic at nominal 3x MIC
Excerpt: Initial studies used a Sony SH-800 instrument, but all studies reported here used an Intellicyt® iQue screener PLUS. This instrument is based in significant measure on developments by Sklar and colleagues (e.g. (Edwards et al. 2009; Sklar et al. 2007; Tegos et al. 2014)), and uses segmented flow (Skeggs 1957) to sample from 96- or 384-well U- or V-bottom plates prior to their analysis. The iQue Plus contains three excitation sources (405 nm, 488 nm, 640 nm) and 7 fixed filter detectors (with a midpoint/range in nm of 445/45, 530/30, 572/28, 585/40, 615/24, 675/30, 780/60, giving 13 fluorescence channels) whose outputs are stored as both ‘height’ and area, using the FCS3.0 data file standard (Seamer et al. 1997). Forward and side scatter are obtained from the 488 nm excitation source. Detection channels are referred to by the laser used (405 nm violet VL, 488 nm blue BL, and 640 nm red RL) and the detector number in order of possible detectors with a longer wavelength. Thus RL1, as used for detecting di-S-C3(5), implies the red laser and the 675/30 detector. Data are collected from all channels, using a dynamic range of 7 logs. Many parameters may be used to vary the precise performance of the instrument. Those we found material to provide the best reproducibility and to minimise carryover, and their selected values, are as follows: Automatic prime—60 secs (in Qsol buffer); Pre-plate shake—15 s and 1500 rpm; Sip time—2 s (actual sample uptake); Additional sip time—0.5 s (the gap between sips); Pump speed—29 rpm (1.5 μL·s^−1 sample uptake); Plate model—U-bottom well plate (for 96 well plates); Mid plate cleanup—After every well (4 washes; 0.5 s each in Qsol buffer); Inter-well shake—1500 rpm; after 6 wells, 4 sec in Qsol buffer; Flush and Clean—30 sec with Decon and Clean buffers followed by 60 sec with deionised water. The Forecyt™ software supplied with the instrument may be used to gate and display all the analyses post hoc. It, and the FlowJo software, were used in the preparation of the cytograms shown. Where used, di-S-C3(5) was present at a final concentration of 3 μM; its analysis used excitation at 640 nm and detection at 675±15 nm, the fluorescence channel being referred to as RL1. For DNA analyses, cells were fixed by injection into ice-cold ethanol (final concentration 70%), washed twice by centrifugation in 0.1 M-Tris/HCl buffer, pH 7.4, before resuspension in the same buffer containing mithramycin (50 μg mL^−1) and ethidium bromide (25 μg mL^−1), MgCl2, (25 mM) and NaCl (100 mM) (Boye et al. 1983). […] All the solutions and media used were filtered through 0.2 μm filter.
Samples were taken at various times during the day, kept at 4° C., delivered to the Manchester laboratory by taxi, plated out (LB agar containing as appropriate the stated antibiotics at 3 times normal MIC) to assess microbial numbers and antibiotic sensitivity, the remaining sample kept again at 4° C., and analysed flow cytometrically within 18 h. For flow cytometric assessment, cells were diluted into 37° C. Terrific Broth containing 3 μM diS-C3(5) plus any appropriate antibiotic, and assayed as above. For other experiments (not shown) cells were filtered (0.45 μm) and diluted as appropriate into warmed terrific broth.
Finally, we wished to determine whether this method, as developed in laboratory cultures, could be applied to candidate UTI specimens ‘as received’ in a doctor's surgery.

E. coli MG1655 = assay: Flow cytometric particle counting of proliferation with antibiotic in 20 mins (FIG. 6C); type: cell-based; conditions: sensitive strain E. coli MG1655, Terrific Broth
Excerpt: Initial studies used a Sony SH-800 instrument, but all studies reported here used an Intellicyt® iQue screener PLUS. This instrument is based in significant measure on developments by Sklar and colleagues (e.g. (Edwards et al. 2009; Sklar et al. 2007; Tegos et al. 2014)), and uses segmented flow (Skeggs 1957) to sample from 96- or 384-well U- or V-bottom plates prior to their analysis. The iQue Plus contains three excitation sources (405 nm, 488 nm, 640 nm) and 7 fixed filter detectors (with a midpoint/range in nm of 445/45, 530/30, 572/28, 585/40, 615/24, 675/30, 780/60, giving 13 fluorescence channels) whose outputs are stored as both ‘height’ and area, using the FCS3.0 data file standard (Seamer et al. 1997). Forward and side scatter are obtained from the 488 nm excitation source. Detection channels are referred to by the laser used (405 nm violet VL, 488 nm blue BL, and 640 nm red RL) and the detector number in order of possible detectors with a longer wavelength. Thus RL1, as used for detecting di-S-C3(5), implies the red laser and the 675/30 detector. Data are collected from all channels, using a dynamic range of 7 logs. Many parameters may be used to vary the precise performance of the instrument. Those we found material to provide the best reproducibility and to minimise carryover, and their selected values, are as follows: Automatic prime—60 secs (in Qsol buffer); Pre-plate shake—15 s and 1500 rpm; Sip time—2 s (actual sample uptake); Additional sip time—0.5 s (the gap between sips); Pump speed—29 rpm (1.5 μL·s^−1 sample uptake); Plate model—U-bottom well plate (for 96 well plates); Mid plate cleanup—After every well (4 washes; 0.5 s each in Qsol buffer); Inter-well shake—1500 rpm; after 6 wells, 4 sec in Qsol buffer; Flush and Clean—30 sec with Decon and Clean buffers followed by 60 sec with deionised water. […] Where used, di-S-C3(5) was present at a final concentration of 3 μM; its analysis used excitation at 640 nm and detection at 675±15 nm, the fluorescence channel being referred to as RL1. […]

[1] = UTI sample May 25, 2018 (first listed)
[2] = UTI sample May 25, 2018 (second listed)

SMILES | Antibiotic sensitivity (E. coli in UTI samples; UTI sample Jul. 16, 2018) | Antibiotic sensitivity (E. coli in UTI samples; UTI sample Jul. 18, 2018) | Antibiotic sensitivity (E. coli in UTI samples; UTI sample Jul. 20, 2018) | Antibiotic sensitivity (E. coli in UTI samples; UTI sample Jun. 6, 2018) | Antibiotic sensitivity (E. coli in UTI samples; [1]) | Antibiotic sensitivity (E. coli in UTI samples; [2]) | Effect on cell proliferation (E. coli MG1655)
CC1(C)S[C@@H]2[C@H](NC(=O)[C@H](N)c3ccccc3)C(=O)N2[C@H]1C(=O)O [Ampicillin] | R | R | S | R | R | S | work effectively
COc1cc(Cc2cnc(N)nc2N)cc(OC)c1OC [Trimethoprim] | S | S | R | S | R | S | work effectively
O=C1CN(/N=C/c2ccc([N+](=O)[O-])o2)C(=O)N1 [Nitrofurantoin] | S | R | S | S | S | S | –
O=C(O)c1cn(C2CC2)c2cc(N3CCNCC3)c(F)cc2c1=O [Ciprofloxacin] | – | – | – | – | – | – | work effectively
